Tests used:
ERBB2 = biological target: T1, ERBB2 (Homo sapiens, UniProt P04626); assay: KINOMEscan scanEDGE; assay type: binding; conditions: 20 uM
T1 construct: purchased Eurofins DiscoverX (KINOMEscan; SAFETYscan E/IC50 ELECT)

IGF1R = biological target: T2, IGF1R (Homo sapiens, UniProt P08069); assay: KINOMEscan scanEDGE; assay type: binding; conditions: 20 uM
T2 construct: purchased Eurofins DiscoverX (KINOMEscan; SAFETYscan E/IC50 ELECT)

MET = biological target: T3, MET (Homo sapiens, UniProt P08581); assay: KINOMEscan scanEDGE; assay type: binding; conditions: 20 uM
T3 construct: purchased Eurofins DiscoverX (KINOMEscan; SAFETYscan E/IC50 ELECT)

KIT(D816V) = biological target: T4, KIT(D816V) (Homo sapiens, UniProt P10721, D816V); assay: KINOMEscan scanEDGE; assay type: binding; conditions: 20 uM
T4 construct: purchased Eurofins DiscoverX (KINOMEscan; SAFETYscan E/IC50 ELECT)

PIM2 = biological target: T5, PIM2 (Homo sapiens, UniProt Q9P1W9); assay: KINOMEscan scanEDGE; assay type: binding; conditions: 20 uM
T5 construct: purchased Eurofins DiscoverX (KINOMEscan; SAFETYscan E/IC50 ELECT)

TSSK1B = biological target: T6, TSSK1B (Homo sapiens, UniProt Q9BXA7); assay: KINOMEscan scanEDGE; assay type: binding; conditions: 20 uM
T6 construct: purchased Eurofins DiscoverX (KINOMEscan; SAFETYscan E/IC50 ELECT)
T6 sequence (Q9BXA7 whole entry): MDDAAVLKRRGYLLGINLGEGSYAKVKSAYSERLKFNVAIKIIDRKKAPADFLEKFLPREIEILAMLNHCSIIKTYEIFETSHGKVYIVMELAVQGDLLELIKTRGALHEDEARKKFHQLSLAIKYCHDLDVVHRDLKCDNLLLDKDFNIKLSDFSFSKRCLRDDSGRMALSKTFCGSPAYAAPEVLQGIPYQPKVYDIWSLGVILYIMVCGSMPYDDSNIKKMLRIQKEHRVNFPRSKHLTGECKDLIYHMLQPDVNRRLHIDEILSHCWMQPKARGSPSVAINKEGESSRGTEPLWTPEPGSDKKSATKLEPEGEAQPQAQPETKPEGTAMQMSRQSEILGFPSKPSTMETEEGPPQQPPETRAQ

SNARK = biological target: T7, SNARK (Homo sapiens, UniProt Q9H093); assay: KINOMEscan scanEDGE; assay type: binding; conditions: 20 uM
T7 construct: purchased Eurofins DiscoverX (KINOMEscan; SAFETYscan E/IC50 ELECT)

IKK-beta = biological target: T8, IKK-beta (Homo sapiens, UniProt O14920); assay: KINOMEscan scanEDGE; assay type: binding; conditions: 20 uM
T8 construct: purchased Eurofins DiscoverX (KINOMEscan; SAFETYscan E/IC50 ELECT)

TRKA = biological target: T9, TRKA (Homo sapiens, UniProt P04629); assay: KINOMEscan scanEDGE; assay type: binding; conditions: 20 uM
T9 construct: purchased Eurofins DiscoverX (KINOMEscan; SAFETYscan E/IC50 ELECT)

p38-alpha = biological target: T10, p38-alpha (Homo sapiens, UniProt Q16539); assay: KINOMEscan scanEDGE; assay type: binding; conditions: 20 uM
T10 construct: purchased Eurofins DiscoverX (KINOMEscan; SAFETYscan E/IC50 ELECT)
T10 sequence (Q16539 whole entry): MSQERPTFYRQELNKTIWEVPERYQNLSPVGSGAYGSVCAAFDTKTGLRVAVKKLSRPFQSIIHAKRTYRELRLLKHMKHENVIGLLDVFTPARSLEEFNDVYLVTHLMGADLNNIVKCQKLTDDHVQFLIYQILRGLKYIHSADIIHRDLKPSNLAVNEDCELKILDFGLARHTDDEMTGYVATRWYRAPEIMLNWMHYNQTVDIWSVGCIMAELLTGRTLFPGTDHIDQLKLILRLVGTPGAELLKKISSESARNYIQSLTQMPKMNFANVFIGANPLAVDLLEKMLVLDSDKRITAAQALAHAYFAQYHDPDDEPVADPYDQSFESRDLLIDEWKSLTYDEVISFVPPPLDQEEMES

MAP3K4 = biological target: T11, MAP3K4 (Homo sapiens, UniProt Q9Y6R4); assay: KINOMEscan scanEDGE; assay type: binding; conditions: 20 uM
T11 construct: purchased Eurofins DiscoverX (KINOMEscan; SAFETYscan E/IC50 ELECT)
T11 sequence (Q9Y6R4 whole entry): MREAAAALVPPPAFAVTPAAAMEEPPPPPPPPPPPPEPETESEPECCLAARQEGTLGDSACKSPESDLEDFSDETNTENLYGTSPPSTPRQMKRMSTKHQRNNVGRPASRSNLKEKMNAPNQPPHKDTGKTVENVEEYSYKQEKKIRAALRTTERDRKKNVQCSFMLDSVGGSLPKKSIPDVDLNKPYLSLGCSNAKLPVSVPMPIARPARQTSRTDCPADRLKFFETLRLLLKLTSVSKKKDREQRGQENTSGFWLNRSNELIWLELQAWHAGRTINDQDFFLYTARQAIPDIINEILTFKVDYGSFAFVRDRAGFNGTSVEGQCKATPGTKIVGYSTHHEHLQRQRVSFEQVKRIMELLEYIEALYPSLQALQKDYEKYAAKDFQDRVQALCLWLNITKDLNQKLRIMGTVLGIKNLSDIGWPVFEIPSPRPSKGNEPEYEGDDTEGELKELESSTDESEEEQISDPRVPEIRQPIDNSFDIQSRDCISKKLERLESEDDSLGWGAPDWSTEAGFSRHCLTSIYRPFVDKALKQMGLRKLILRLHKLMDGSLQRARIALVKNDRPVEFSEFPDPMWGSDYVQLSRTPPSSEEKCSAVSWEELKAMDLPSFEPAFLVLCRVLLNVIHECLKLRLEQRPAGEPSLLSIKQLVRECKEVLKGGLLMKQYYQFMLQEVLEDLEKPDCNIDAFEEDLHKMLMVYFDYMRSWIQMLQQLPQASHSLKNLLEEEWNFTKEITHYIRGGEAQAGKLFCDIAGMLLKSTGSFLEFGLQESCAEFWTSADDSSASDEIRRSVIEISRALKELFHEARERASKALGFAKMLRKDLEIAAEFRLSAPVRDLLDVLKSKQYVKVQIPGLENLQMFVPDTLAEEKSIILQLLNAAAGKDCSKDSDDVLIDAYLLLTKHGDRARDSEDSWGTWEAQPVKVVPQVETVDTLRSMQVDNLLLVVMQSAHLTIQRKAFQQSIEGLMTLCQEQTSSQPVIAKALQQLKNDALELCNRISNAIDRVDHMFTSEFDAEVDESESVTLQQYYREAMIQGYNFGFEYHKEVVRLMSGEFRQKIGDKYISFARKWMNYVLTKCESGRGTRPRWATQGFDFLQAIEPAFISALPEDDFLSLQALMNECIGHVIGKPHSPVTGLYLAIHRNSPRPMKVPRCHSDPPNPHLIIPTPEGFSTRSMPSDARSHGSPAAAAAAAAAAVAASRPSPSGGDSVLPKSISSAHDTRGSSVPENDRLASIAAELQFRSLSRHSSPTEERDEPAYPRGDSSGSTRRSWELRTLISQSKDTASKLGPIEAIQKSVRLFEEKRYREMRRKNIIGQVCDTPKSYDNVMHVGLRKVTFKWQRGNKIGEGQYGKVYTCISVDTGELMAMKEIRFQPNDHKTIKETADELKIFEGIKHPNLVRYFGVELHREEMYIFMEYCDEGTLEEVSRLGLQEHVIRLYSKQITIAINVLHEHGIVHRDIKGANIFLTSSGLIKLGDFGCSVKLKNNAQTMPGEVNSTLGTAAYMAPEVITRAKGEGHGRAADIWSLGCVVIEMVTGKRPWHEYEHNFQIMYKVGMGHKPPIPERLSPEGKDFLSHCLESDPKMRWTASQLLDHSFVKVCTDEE

RAF1 = biological target: T12, RAF1 (Homo sapiens, UniProt P04049); assay: KINOMEscan scanEDGE; assay type: binding; conditions: 20 uM
T12 construct: purchased Eurofins DiscoverX (KINOMEscan; SAFETYscan E/IC50 ELECT)

young mdx mice = assay: 3-week dosing of young (weaning) mdx mice, soleus histology; assay type: in vivo, mouse; conditions: post-weaning mdx mice, 3 weeks
Excerpt: C57BL/6 (stock no. 000664), C57BL/10J (stock no. 000665, control for mdx experiments), C57BL/10ScSn-Dmd^mdx/J (mdx, stock no. 001801), and D2.B10 (DBA/2-congenic) Dmd^mdx (DBA/2J mdx, stock no. 013141) mice were from The Jackson Laboratory. Sprague-Dawley rats were purchased from Charles River Laboratories. For ex vivo experiments, mice were 10–16 weeks old. For in situ experiments, mice were 8–14 weeks of age. For in vivo chronic dosing studies, mdx and DBA/2J mdx were 4–5 weeks of age at study start. Dosing was via a 10 mL/kg suspension (1% methyl cellulose, 0.1% Tween 80 in water). For studies in 14-day-old preweaning mice, PO dosing was via syrup suspension (3 mg/kg/d). […]
For sterile muscle injury, mice were anesthetized with isoflurane and 50 μL cardiotoxin (12 × 10^–6 M, 217503, Millipore) injected in the TA muscle. […] 8 μm cryosections were cut and stained with H&E. For each analysis, more than 10 slides (per condition/group) containing 6 muscle sections/sample were used, and myofibers in the injured area were counted and measured with a Mirax digital scanner and HALO software ([68]). […] Image analysis was performed using ImarisX64 software (Bitplane AG), and fiber sizing was calculated using minimal Feret’s diameter ([69]). […] Fiber type, size, and central nucleation were quantified with analysis via SMASH ([70]) and ImageJ (NIH). […]

CDK3 = biological target: T13, CDK3 (Homo sapiens, UniProt Q00526); assay: KINOMEscan scanEDGE; assay type: binding; conditions: 20 uM
T13 construct: purchased Eurofins DiscoverX (KINOMEscan; SAFETYscan E/IC50 ELECT)

[1] = biological target: T14, porcine ventricular cardiac S1 (Sus scrofa, UniProt P79293); assay: Actin-activated myosin S1 ATPase, cardiac; assay type: biochemical
T14 construct: tissue Pel-freez; host or cells: frozen porcine ventricular muscle; myosin extracted and digested with alpha-chymotrypsin
Method: Smooth muscle chicken gizzard S1 was purchased from Cytoskeleton Inc. Other myosin S1 was prepared via published protocols ([21]). Briefly, fresh rabbit psoas and frozen porcine ventricular muscle (Pel-freez) were extracted in 0.3 M KCl, 0.15 M KH2PO4, 1 mM EGTA, 1 mM ATP, 1 mM DTT, pH 6.5, at 4°C. Full-length myosin was purified from each extract via low-ionic precipitations with final precipitation into PM12 buffer (12 mM PIPES, pH 7.0, 2 mM MgCl2). Purified myosin was resuspended in PIPES/EDTA buffer (20 mM PIPES, pH 6.8, 10 mM EDTA, 1 mM DTT) and reacted with 0.2 mg/mL α-chymotrypsin for 30 minutes at room temperature. Proteolysis was quenched with PMSF (final concentration 100 μM), and the reaction was centrifuged for 45 minutes at 230,000g. S1 fragment in the supernatant was dialyzed into PM12 with 0.02% sodium azide and clarified by centrifugation. Sucrose was added to 10% w/v and flash-frozen in liquid N2 and stored at –80°C. […]
A lactate dehydrogenase/pyruvate kinase enzyme-coupled system ([62]) was used to monitor ATP hydrolysis rates in various muscle preparations. […] A multidrop cassette (Thermo Fisher Scientific) dispensed 10 μL of the coupled enzyme system, calcium, and myofibrils to 10 μL ATP, NADH and PEP to initiate the reaction prior to reading on a plate reader (Envision, Perkin Elmer) for 10 minutes per plate at room temperature. […]

CDK9 = biological target: T15, CDK9 (Homo sapiens, UniProt P50750); assay: KINOMEscan scanEDGE; assay type: binding; conditions: 20 uM
T15 construct: purchased Eurofins DiscoverX (KINOMEscan; SAFETYscan E/IC50 ELECT)

T1 sequence (P04626 23-1255): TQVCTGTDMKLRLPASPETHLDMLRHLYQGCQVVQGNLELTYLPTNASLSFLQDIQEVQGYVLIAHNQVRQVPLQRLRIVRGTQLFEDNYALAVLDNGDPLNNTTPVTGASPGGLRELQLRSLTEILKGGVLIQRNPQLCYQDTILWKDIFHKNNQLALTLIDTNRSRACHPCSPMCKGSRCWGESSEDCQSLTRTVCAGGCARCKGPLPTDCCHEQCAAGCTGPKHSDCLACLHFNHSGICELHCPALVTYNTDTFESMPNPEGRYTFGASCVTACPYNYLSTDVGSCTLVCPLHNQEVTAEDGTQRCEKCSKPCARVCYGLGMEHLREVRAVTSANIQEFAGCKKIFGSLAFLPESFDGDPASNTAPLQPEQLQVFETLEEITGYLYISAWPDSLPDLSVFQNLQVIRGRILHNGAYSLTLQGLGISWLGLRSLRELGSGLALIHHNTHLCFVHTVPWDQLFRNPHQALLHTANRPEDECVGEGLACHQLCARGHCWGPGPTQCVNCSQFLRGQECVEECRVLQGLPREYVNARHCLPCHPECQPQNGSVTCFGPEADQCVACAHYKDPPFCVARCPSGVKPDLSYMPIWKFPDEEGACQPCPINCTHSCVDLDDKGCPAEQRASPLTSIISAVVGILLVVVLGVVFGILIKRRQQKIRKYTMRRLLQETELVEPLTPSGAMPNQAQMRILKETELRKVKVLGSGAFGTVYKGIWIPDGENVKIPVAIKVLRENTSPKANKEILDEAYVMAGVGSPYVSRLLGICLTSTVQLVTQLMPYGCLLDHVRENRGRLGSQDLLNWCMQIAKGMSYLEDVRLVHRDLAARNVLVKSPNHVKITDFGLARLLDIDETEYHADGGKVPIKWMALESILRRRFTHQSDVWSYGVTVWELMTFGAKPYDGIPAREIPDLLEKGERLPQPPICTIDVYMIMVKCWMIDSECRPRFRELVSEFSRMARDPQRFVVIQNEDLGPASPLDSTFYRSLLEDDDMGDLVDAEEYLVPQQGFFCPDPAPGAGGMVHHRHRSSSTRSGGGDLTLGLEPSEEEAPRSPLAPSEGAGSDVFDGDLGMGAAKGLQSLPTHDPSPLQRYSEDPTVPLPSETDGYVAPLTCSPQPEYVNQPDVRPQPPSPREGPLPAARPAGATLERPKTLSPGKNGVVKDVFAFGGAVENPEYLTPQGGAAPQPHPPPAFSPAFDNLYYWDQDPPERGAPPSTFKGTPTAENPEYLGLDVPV
T2 sequence (P08069 31-1367): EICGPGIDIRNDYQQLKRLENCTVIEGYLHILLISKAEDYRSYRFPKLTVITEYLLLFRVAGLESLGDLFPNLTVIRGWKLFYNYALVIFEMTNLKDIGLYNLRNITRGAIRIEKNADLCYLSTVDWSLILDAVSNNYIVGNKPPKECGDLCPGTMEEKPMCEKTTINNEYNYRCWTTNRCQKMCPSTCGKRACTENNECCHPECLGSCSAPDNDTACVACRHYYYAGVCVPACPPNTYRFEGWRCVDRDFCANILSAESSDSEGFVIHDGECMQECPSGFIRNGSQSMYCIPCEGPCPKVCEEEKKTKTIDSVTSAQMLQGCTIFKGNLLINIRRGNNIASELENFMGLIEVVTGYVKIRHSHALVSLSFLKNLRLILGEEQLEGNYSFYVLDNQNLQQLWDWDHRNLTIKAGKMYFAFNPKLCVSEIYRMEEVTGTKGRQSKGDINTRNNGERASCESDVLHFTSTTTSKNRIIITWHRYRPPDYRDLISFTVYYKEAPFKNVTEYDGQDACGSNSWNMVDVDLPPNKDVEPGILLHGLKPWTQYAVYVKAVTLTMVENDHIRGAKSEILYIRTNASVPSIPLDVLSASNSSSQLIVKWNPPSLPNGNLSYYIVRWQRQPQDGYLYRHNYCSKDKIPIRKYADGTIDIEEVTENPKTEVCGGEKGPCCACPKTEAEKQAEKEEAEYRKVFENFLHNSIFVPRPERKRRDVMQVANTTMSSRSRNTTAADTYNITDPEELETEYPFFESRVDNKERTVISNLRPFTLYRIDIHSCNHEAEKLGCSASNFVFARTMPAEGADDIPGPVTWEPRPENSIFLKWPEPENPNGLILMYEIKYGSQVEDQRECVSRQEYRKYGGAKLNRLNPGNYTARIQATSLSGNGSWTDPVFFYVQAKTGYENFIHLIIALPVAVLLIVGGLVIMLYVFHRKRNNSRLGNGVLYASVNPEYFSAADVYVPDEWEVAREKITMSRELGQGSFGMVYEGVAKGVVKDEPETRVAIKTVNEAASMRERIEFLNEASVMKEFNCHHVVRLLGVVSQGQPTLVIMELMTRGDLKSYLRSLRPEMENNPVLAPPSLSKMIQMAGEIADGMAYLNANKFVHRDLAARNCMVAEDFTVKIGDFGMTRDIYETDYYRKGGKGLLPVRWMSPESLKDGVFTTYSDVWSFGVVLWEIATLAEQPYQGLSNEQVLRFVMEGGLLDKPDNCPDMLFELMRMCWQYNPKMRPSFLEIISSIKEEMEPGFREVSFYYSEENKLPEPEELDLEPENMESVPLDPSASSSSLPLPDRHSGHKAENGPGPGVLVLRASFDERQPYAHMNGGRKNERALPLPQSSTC

O=c1ccc(-c2cnc(OCC(F)(F)F)nc2)nn1Cc1cncc(F)c1 [EDG-5506]
binding, % of control (ERBB2): 76 % of control
binding, % of control (IGF1R): 94 % of control
binding, % of control (MET): 55 % of control
binding, % of control (KIT(D816V)): 87 % of control
binding, % of control (PIM2): 100 % of control
binding, % of control (TSSK1B): 97 % of control
binding, % of control (SNARK): 100 % of control
binding, % of control (IKK-beta): 94 % of control
binding, % of control (TRKA): 98 % of control
binding, % of control (p38-alpha): 100 % of control
binding, % of control (MAP3K4): 90 % of control
binding, % of control (RAF1): 100 % of control
central nucleation in soleus (young mdx mice): decreased central nucleation
binding, % of control (CDK3): 100 % of control
IC50 [1]: > 100 µM
binding, % of control (CDK9): 96 % of control
